Assay [1] relates to E. oxidotolerans protease. The assay can be described thus: Azocasein hydrolysis with class-specific protease inhibitors (culture supernatant). To be noted: 1,10-phenanthroline 2 mM, PMSF 0.2 mM, E-64 10 μM; 37 °C, 1 h; crude preparation. The format is biochemical, Exiguobacterium oxidotolerans. The procedure:
Peptidase activity was quantified using azocasein hydrolysis. Conditioned media (100 µL) was mixed with 1% (w/v) azocasein in PBS and incubated at […] for 1 h. The reaction was quenched by adding 400 µL of 5% trifluoroacetic acid (TFA), and the mixture was centrifuged at 13,000 rpm for 10 min. Absorbance of the supernatant was measured at 440 nm to determine protease activity. Units of protease activity were calculated as previously described by Loomes et al..
Overnight cultures were centrifuged (4000 rpm, 4 °C, 12 min), and the supernatant was filtered through a 0.45 µm nitrocellulose membrane. Protease activity was evaluated by incubating 100 µL of supernatant with 1% azocasein at 37 °C for 1 h. The reaction was quenched with 400 µL of TFA, and absorbance was measured at 440 nm. Protease mechanistic class was determined by incubating the supernatant with 2 mM 1,10-phenanthroline (metalloprotease inhibitor), 0.2 mM PMSF (serine protease inhibitor), and 10 µM E-64 (cysteine protease inhibitor) prior to azocasein hydrolysis.

In assay [2] the test system is E. oxidotolerans peptidase. The assay can be described thus: Casein zymography with and without 1,10-phenanthroline. The class given is biochemical, Exiguobacterium oxidotolerans. Conditions: crude and purified samples; 1,10-phenanthroline in renaturing buffer. The procedure:
Casein zymography was used to visualize protease activity in fractions collected from the Akta Prime HIC system. Samples were prepared in Laemmli buffer and run on a Tris-Glycine casein zymogram gel using the XCell SureLock™ Mini-Cell system. Following electrophoresis, gels were sectioned and renatured in Novex zyogram renaturing buffer with and without 1,10 phenanthroline (5 mM) to assess metalloprotease activity. Gels were stained, destained, and analyzed for caseinolytic peptidase activity.

Assay [3] deals with E. oxidotolerans peptidase. The assay can be described thus: Fluorogenic substrate hydrolysis progress curves with class-specific inhibitors (purified enzyme). The class given is biochemical, Exiguobacterium oxidotolerans. Conditions: 1,10 phenanthroline 2 mM, PMSF 0.2 mM, E-64 10 μM. The procedure: Peptidase activity was confirmed using the matrix metalloproteinase (MMP) substrate Mca-Lys-Pro-Leu-Gly-Leu-Dap-(Dnp)-Ala-Arg-NH2 (Peptides International). Class-specific inhibitors were used to determine the catalytic mechanism, including E-64 (10 μM) for cysteine proteases, 1,10 phenanthroline (2 mM) for metalloproteases, and PMSF (0.2 mM) for serine proteases. These concentrations were selected based on established guidelines for effective inhibition. Fluorescence was monitored at excitation 330 nm and emission 460 nm over a 45 min period as described previously.
Time-dependent hydrolysis of the fluorogenic substrate Mca-Lys-Pro-Leu-Gly-Leu-Dap-(Dnp)-Ala-Arg-NH2 by exiguolysin was measured in 96-well plates (total volume 100 µL) with fluorescence was measured every 30 s for 45 min using a plate reader (excitation at 330 nm and emission at 460 nm). Progress curves were generated, and kinetic parameters were determined using non-linear regression.

The target in assay [4] is thermolysin-like protease of E. oxidotolerans (exiguolysin) (Exiguobacterium oxidotolerans, UniProt A0A653I866). The assay can be described thus: Inhibitor screening and Ki determination, fluorogenic MMP substrate assay. The format is biochemical. To be noted: fluorogenic substrate hydrolysis, 37 °C; Morrison equation for tight-binding inhibitors; Km 14.20 µM; read-out: True Ki. The procedure: The inhibition of protease activity was screened using a 20 × 20 library of N-alpha dipeptide mercaptoamide inhibitors as previously described by Cathcart et al., and the half-maximal inhibitory constant (Ki) values were determined. In order to determine Michaelis–Menten constant, Km, of the fluorogenic substrate, exiguolysin (previously purified by HIC, final concentration 5 units/well) was added to wells of a 96-well black microtitre plate (Nunc); the volume was adjusted to 75 µL in assay buffer (25 mM Tris, 2.5 mM CaCl2, pH 7.0), and fluorogenic substrate (25 µL) was added at concentrations of 0, 1, 10, 25, 50, 100 and 200 µM. Time-dependent hydrolysis of the fluorogenic substrate was measured (excitation/emission […] nm) every 30 s for 30 min. The Km is determined using the Michealis–Menten equation, by plotting the rate of substrate hydrolysis against substrate concentration.
thermolysin-like protease of E. oxidotolerans (exiguolysin), sequence (A0A653I866 entry or part of it): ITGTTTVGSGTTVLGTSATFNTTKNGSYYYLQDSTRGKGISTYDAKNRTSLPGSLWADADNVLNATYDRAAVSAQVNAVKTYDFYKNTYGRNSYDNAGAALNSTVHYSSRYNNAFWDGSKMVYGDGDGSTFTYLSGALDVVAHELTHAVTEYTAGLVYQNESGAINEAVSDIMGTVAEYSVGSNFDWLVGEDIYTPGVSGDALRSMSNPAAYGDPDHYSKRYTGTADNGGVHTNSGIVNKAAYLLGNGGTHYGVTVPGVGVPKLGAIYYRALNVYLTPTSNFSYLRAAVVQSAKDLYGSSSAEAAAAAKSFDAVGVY
Initially, each inhibitor was tested at a final concentration of 100 µM in a broad-spectrum screen, employing a standard fluorogenic substrate assay using Mca-Lys-Pro-Leu-Gly-Leu-Dap-(Dnp)-Ala-Arg-NH2. Enzyme reactions were carried out in a 96-well black plate at 37 °C, and fluorescence was monitored as described above.

A further assay concerns the target T1, PAR-1 (Homo sapiens, UniProt P25116).
T1 construct: calcium mobilization in PC-3 cells (expressing PAR1); endogenous in cells; host or cells: PC-3
T1 sequence (P25116 22-425): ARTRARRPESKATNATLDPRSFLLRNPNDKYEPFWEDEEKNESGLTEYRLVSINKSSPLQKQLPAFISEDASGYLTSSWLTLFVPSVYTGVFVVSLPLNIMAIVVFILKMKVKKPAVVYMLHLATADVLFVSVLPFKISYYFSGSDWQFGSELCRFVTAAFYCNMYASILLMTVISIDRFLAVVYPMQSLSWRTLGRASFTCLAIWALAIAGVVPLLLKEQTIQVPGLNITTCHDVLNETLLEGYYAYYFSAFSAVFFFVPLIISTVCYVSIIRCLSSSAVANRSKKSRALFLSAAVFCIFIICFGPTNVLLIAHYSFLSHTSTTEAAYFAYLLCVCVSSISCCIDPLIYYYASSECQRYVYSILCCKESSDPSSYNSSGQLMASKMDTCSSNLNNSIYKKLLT
The assay can be described thus: Calcium mobilization assay in PC-3 cells (Fluo-4 AM). Conditions: protease pre-incubated with inhibitor, thrombin-induced activation. The format is cell-based. The procedure:
Calcium mobilization in PC-3 and HCT15 cells was assessed using the fluorescent calcium indicator Fluo-4 AM (ThermoFisher, UK). Cells were cultured in RPMI-1640 medium with 10% fetal bovine serum and antibiotics, maintained at 37 °C with 5% CO2. Cells were seeded in 96-well plates and incubated with 5 μM Fluo-4 AM for 30 min at 37 °C. After washing, cells were treated with 5 units/well of thermolysin-like protease or the agonists TFLLRN (PAR-1) and SLIGKV (PAR-2). Intracellular calcium changes were monitored using a BMG Fluostar plate reader (excitation: 494 nm, emission: 516 nm).

As for `c1cnc2c(c1)ccc1cccnc12` [1,10-phenanthroline], the “Inhibition of azocasein hydrolysis” value in assay [1] was “significantly reduced protease activity”. In addition, in assay [2], the “Inhibition of proteolytically active bands in zymogram” value is “inhibited”. For the same compound, the “Inhibition of hydrolysis of Mca-Lys-Pro-Leu-Gly-Leu-Dap-(Dnp)-Ala-Arg-NH2 (progress curves)” value (from here on “Inhibition of hydrolysis … (progress curves)”) in assay [3] is “significantly inhibited”. As to `CC(C)C[C@H](NC(=O)[C@H]1O[C@@H]1C(=O)O)C(=O)NCCCCN=C(N)N` [Inhibitor E-64, E-64], the “Inhibition of azocasein hydrolysis” value in assay [1] is given as “partial inhibition”. Further, in assay [3], the “Inhibition of hydrolysis … (progress curves)” value is given as “minimal effects”. For the compound `NCCCCC(NC(=O)C(CC(N)=O)NC(=O)CS)C(N)=O` (stereo not drawn) [Me-Asn-Lys-NH2], the inhibitory constant (Ki) in assay [4] was 20.9 µM. Same read-out and setting: the result for `NC(=O)CC(NC(=O)CS)C(=O)NC(Cc1c[nH]c2ccccc12)C(N)=O` (stereo not drawn) [Me-Asn-Trp-NH2] reads 4.35 µM; that for `NC(=O)CC(NC(=O)CS)C(=O)NC(Cc1ccc(O)cc1)C(N)=O` (stereo not drawn) [Me-Asn-Tyr-NH2], 5.71 µM. The same measure, in the same setting: the value for `CCC(C)C(NC(=O)C(NC(=O)CS)C(C)CC)C(N)=O` (stereo not drawn) [Me-Ile-Ile-NH2] was 11.2 µM; that for `CCC(C)C(NC(=O)CS)C(=O)NC(C(N)=O)C(C)C` (stereo not drawn) [Me-Ile-Val-NH2] was 8.33 µM; that for `CSCCC(NC(=O)CS)C(=O)NC(Cc1ccc(O)cc1)C(N)=O` (stereo not drawn) [Me-Met-Tyr-NH2, SH-CH2-CO-Met-Tyr-NH2] was 1.95 µM. As to `N=C(N)NCCCC(NC(=O)C1CCCN1C(=O)CS)C(N)=O` (stereo not drawn) [Me-Pro-Arg-NH2, SH-CH2-CO-Pro-Arg-NH2], the inhibition constant (Ki) in assay [4] is 3.97 µM. Also, on PAR-1, the “Reversal of the protease's PAR-1 disarming effect” value is given as “reversed”. Regarding `NC(=O)C(Cc1ccccc1)NC(=O)C(Cc1ccc(O)cc1)NC(=O)CS` (stereo not drawn) [Me-Tyr-Phe-NH2], the Ki in assay [4] turned out to be 5.52 µM. Take `CC(C)C(NC(=O)C(NC(=O)CS)C(C)C)C(N)=O` (stereo not drawn) [Me-Val-Val-NH2]: the Ki in assay [4] worked out at 3.21 µM. As for `O=S(=O)(F)Cc1ccccc1` [PMSF], the “Inhibition of azocasein hydrolysis” value in assay [1] is on record as “Slight inhibition”. In addition, in assay [3], the “Inhibition of hydrolysis … (progress curves)” value is “minimal effects”.

The record behind these values is PMC11596557, “Exiguolysin, a Novel Thermolysin (M4) Peptidase from Exiguobacterium oxidotolerans” (Microorganisms, 2024).
